Experimental data from paper PMC10683482, “Offsetting Low-Affinity Carbohydrate Binding with Covalency to Engage Sugar-Specific Proteins for Tumor-Immune Proximity Induction” (ACS Central Science, 2023).

Test system: Hek-PSMA cells
Test: ADCC reporter assay with polyclonal human IgG, column step (Figure 3)
Type: cell-based
Details: 50 μM compound with 230 μM human IgG 72 h, column washing step
Experimental: Next, we investigated the potential ability of rhamnose cARMs and noncovalent ARM analogs to induce immune proximity with cancer targets. […] These compounds were then evaluated for their capacity to activate immune cells against PSMA cancer targets (Hek-PSMA cells) in an ADCC reporter assay (Figure 3). […] The formation of this complex may be prevented by the alkyl linker, which could adopt a fixed conformation via hydrophobic collapse.
Figure 3 ADCC reporter assay to evaluate cARM vs ARM immune function using polyclonal anti-rhamnose antibodies. Top: chemical structures of compounds evaluated. Bottom: ADCC assay. Each cARM/ARM (50 μM) was incubated with polyclonal human IgG (230 μM) for 72 h and passed through a Millipore centrifugation column. Antibody solutions were then resuspended to experimental concentrations and added to preplated Hek-P cells (50,000 cells). To this cell solution, luciferase-expressing jurkat cells were added and incubated for 24 h. Activation of jurkat was determined as a measure of luciferase expression with a BioGlo assay kit.
General Notes and Materials
ELISA - General notes and Materials […]
Plate absorbance was measured at 450 nm using a Tecan Spark Plate Reader. […]
Pre-cast Tris-Glycine Gels (4-20%) were purchased from Fisher Scientific (XP04202BOX). […] Gel fluorescence was imaged using a GE Typhoon imager (Cy2 channel for fluorescein, Cy5 channel for A647). […]

Compound	immune activation (jurkat luciferase)
C[C@@H]1O[C@@H](OCc2cn(CCc3cn(C(=O)OCCNC(=O)CCCCCNC(=O)CCCCCNC(=O)CCCCCNC(=O)NCCCC[C@H](NC(=O)N[C@@H](CCC(=O)O)C(=O)O)C(=O)O)cn3)nn2)[C@H](O)[C@H](O)[C@H]1O [compound 10]	successfully mediated specific immune activation
C[C@@H]1O[C@@H](OCc2cn(CCCNC(=O)OCCNC(=O)CCCCCNC(=O)CCCCCNC(=O)CCCCCNC(=O)NCCCC[C@H](NC(=O)N[C@@H](CCC(=O)O)C(=O)O)C(=O)O)nn2)[C@H](O)[C@H](O)[C@H]1O [compound 11]	failed to induce immune activation
